This passage reports pest or weed control results from patent publication US10206394B2, “Herbicidal compounds” (Syngenta Participations AG, priority 2014, dated 2019).

Holding throughout (experiment): Glasshouse assay for herbicidal activity (pre- and post-emergence), percentage phytotoxicity
Assay type in all cases: in vivo

Assay [1] has as its system Alopecurus myosuroides (ALOMY). As to conditions: Alopecurus myosuroides. How it is done: (§1) Test—Glasshouse Assay for Herbicidal Activity
(§2) Seeds of a variety of monocotyledonous and dicotyledonous test plants are sown in standard soil in pots. The plants are cultivated for one day (for pre-emergence (PRE)) or for about 12 days (for post-emergence (POST)) under controlled conditions in a glasshouse (warm climate species at 24/18° C., cool climate species at 20/16° C., both at day/night; 16 hours light; 65% humidity).
(§3) The test plants are then grown on, in a glasshouse (greenhouse) under controlled conditions (warm climate species at 24/18° C., cool climate species at 20/16° C., both at day/night; 16 hours light; 65% humidity) and are watered twice daily. 15 days after application of the test herbicide (15 DAA) (for post-emergence), and 20 days after application of the test herbicide (20 DAA) (for pre-emergence), the test plants are evaluated visually, and an assessed percentage phytotoxicity score is given for each herbicidal application on each plant species (with 100%=total damage to plant; 0%=no damage to plant).
(§4) The plant species tested are as follows: Alopecurus myosuroides (ALOMY), Avena fatua (AVEFA), Lolium perenne (LOLPE), Echinochloa crus-galli (ECHCG).

A further assay relates to Avena fatua (AVEFA). As to conditions: Avena fatua. How it is done: as §1, §2, §3, §4
Assay [2] concerns Echinochloa crus-galli (ECHCG). As to conditions: Echinochloa crus-galli. The method, then:
as §1, §2, §3, §4

The subject of a further assay is Lolium perenne (LOLPE). Conditions: Lolium perenne. The method, then: as §1, §2, §3, §4
The mark [3] stands for this setting: post-emergence, 360 h, POST-emergence, rate 250 g/ha, visual score 15 DAA (100%=total damage, 0%=no damage), read-out: Post-emergence herbicidal activity (percentage phytotoxicity) ALOMY POST.
Where [4] appears, read: pre-emergence, 480 h, PRE-emergence, rate 250 g/ha, visual score 20 DAA (100%=total damage, 0%=no damage), read-out: Pre-emergence herbicidal activity (percentage phytotoxicity) ALOMY PRE.
Setting [5] is: post-emergence, 360 h, POST-emergence, rate 250 g/ha, visual score 15 DAA (100%=total damage, 0%=no damage), read-out: Post-emergence herbicidal activity (percentage phytotoxicity) AVEFA POST.
[6] abbreviates: pre-emergence, 480 h, PRE-emergence, rate 250 g/ha, visual score 20 DAA (100%=total damage, 0%=no damage), read-out: Pre-emergence herbicidal activity (percentage phytotoxicity) AVEFA PRE.
Where [7] appears, read: post-emergence, 360 h, POST-emergence, rate 250 g/ha, visual score 15 DAA (100%=total damage, 0%=no damage), read-out: Post-emergence herbicidal activity (percentage phytotoxicity) ECHCG POST.
Where [8] appears, read: pre-emergence, 480 h, PRE-emergence, rate 250 g/ha, visual score 20 DAA (100%=total damage, 0%=no damage), read-out: Pre-emergence herbicidal activity (percentage phytotoxicity) ECHCG PRE.
The mark [9] stands for this setting: post-emergence, 360 h, POST-emergence, rate 250 g/ha, visual score 15 DAA (100%=total damage, 0%=no damage), read-out: Post-emergence herbicidal activity (percentage phytotoxicity) LOLPE POST.
[10] abbreviates: pre-emergence, 480 h, PRE-emergence, rate 250 g/ha, visual score 20 DAA (100%=total damage, 0%=no damage), read-out: Pre-emergence herbicidal activity (percentage phytotoxicity) LOLPE PRE.
Where [11] appears, read: post-emergence, 360 h, Rate 250 g/ha, post-emergence, assessed visually 15 DAA, 100%=total damage, 0%=no damage, read-out: Post-emergence herbicidal activity (percentage phytotoxicity) ALOMY POST.
[12] abbreviates: pre-emergence, 480 h, Rate 250 g/ha, pre-emergence, assessed visually 20 DAA, 100%=total damage, 0%=no damage, read-out: Pre-emergence herbicidal activity (percentage phytotoxicity) ALOMY PRE.
The mark [13] stands for this setting: post-emergence, 360 h, Rate 250 g/ha, post-emergence, assessed visually 15 DAA, 100%=total damage, 0%=no damage, read-out: Post-emergence herbicidal activity (percentage phytotoxicity) AVEFA POST.
[14] abbreviates: pre-emergence, 480 h, Rate 250 g/ha, pre-emergence, assessed visually 20 DAA, 100%=total damage, 0%=no damage, read-out: Pre-emergence herbicidal activity (percentage phytotoxicity) AVEFA PRE.
[15] abbreviates: post-emergence, 360 h, Rate 250 g/ha, post-emergence, assessed visually 15 DAA, 100%=total damage, 0%=no damage, read-out: Post-emergence herbicidal activity (percentage phytotoxicity) ECHCG POST.
The mark [16] stands for this setting: pre-emergence, 480 h, Rate 250 g/ha, pre-emergence, assessed visually 20 DAA, 100%=total damage, 0%=no damage, read-out: Pre-emergence herbicidal activity (percentage phytotoxicity) ECHCG PRE.
Where [17] appears, read: post-emergence, 360 h, Rate 250 g/ha, post-emergence, assessed visually 15 DAA, 100%=total damage, 0%=no damage, read-out: Post-emergence herbicidal activity (percentage phytotoxicity) LOLPE POST.
Setting [18] is: pre-emergence, 480 h, Rate 250 g/ha, pre-emergence, assessed visually 20 DAA, 100%=total damage, 0%=no damage, read-out: Pre-emergence herbicidal activity (percentage phytotoxicity) LOLPE PRE.

Like-named read-outs stand apart in the source and are kept apart here.

Take `Cc1cc(-c2ccc(C#N)cn2)cc(C)c1C1C(=O)CC(CC(=O)NCc2cccc(Cl)c2)C1=O` (stereo not shown) [Compound B295]: the pest or weed control at 250 g/ha was 90% in assay [1] (setting [3]); 80% in assay [1] (setting [4]); 100% with Avena fatua (AVEFA) (setting [5]); 60% in the assay with Avena fatua (AVEFA) (setting [6]); 100% in assay [2] (setting [7]); 90% in assay [2] (setting [8]). Moreover, the pest or weed control at 250 g/ha in the assay on Lolium perenne (LOLPE) (setting [9]) and with Lolium perenne (LOLPE) (setting [10]) was 90% throughout.

For the compound `Cc1cnc(CNC(=O)CC2CC(=O)C(c3c(C)cc(-c4ncc(Cl)cc4F)cc3C)C2=O)s1` (stereo not shown) [Compound A123], the pest or weed control at 250 g/ha stood at 80% in assay [1] (setting [11]); 60% in assay [1] (setting [12]); 80% in the assay with Avena fatua (AVEFA) (setting [13]); 70% with Avena fatua (AVEFA) (setting [14]); 100% in assay [2] (setting [15]); 90% in assay [2] (setting [16]). The pest or weed control at 250 g/ha in the assay with Lolium perenne (LOLPE) (setting [17]) came to 90%; with Lolium perenne (LOLPE) (setting [18]), 80%.

Turning to `C=CCNC(=O)CC1CC(=O)C(c2c(C)cc(-c3ccc(F)cn3)cc2C)C1=O` (stereo not shown) [Compound B395], the pest or weed control at 250 g/ha is 100% in assay [1] (post-emergence, 360 h, Rate 250 g/ha, post-emergence, visual assessment 15 DAA, 100%=total damage, 0%=no damage, read-out: Post-emergence herbicidal activity (percentage phytotoxicity) ALOMY POST); 100% in assay [1] (pre-emergence, 480 h, Rate 250 g/ha, pre-emergence, visual assessment 20 DAA, 100%=total damage, 0%=no damage, read-out: Pre-emergence herbicidal activity (percentage phytotoxicity) ALOMY PRE); 100% in the assay with Avena fatua (AVEFA) (post-emergence, 360 h, Rate 250 g/ha, post-emergence, visual assessment 15 DAA, 100%=total damage, 0%=no damage, read-out: Post-emergence herbicidal activity (percentage phytotoxicity) AVEFA POST); 100% in the assay with Avena fatua (AVEFA) (pre-emergence, 480 h, Rate 250 g/ha, pre-emergence, visual assessment 20 DAA, 100%=total damage, 0%=no damage, read-out: Pre-emergence herbicidal activity (percentage phytotoxicity) AVEFA PRE); 100% in assay [2] (post-emergence, 360 h, Rate 250 g/ha, post-emergence, visual assessment 15 DAA, 100%=total damage, 0%=no damage, read-out: Post-emergence herbicidal activity (percentage phytotoxicity) ECHCG POST); 100% in assay [2] (pre-emergence, 480 h, Rate 250 g/ha, pre-emergence, visual assessment 20 DAA, 100%=total damage, 0%=no damage, read-out: Pre-emergence herbicidal activity (percentage phytotoxicity) ECHCG PRE). In addition, the pest or weed control at 250 g/ha came to 90% in the assay with Lolium perenne (LOLPE) (post-emergence, 360 h, Rate 250 g/ha, post-emergence, visual assessment 15 DAA, 100%=total damage, 0%=no damage, read-out: Post-emergence herbicidal activity (percentage phytotoxicity) LOLPE POST) and 100% in the assay with Lolium perenne (LOLPE) (pre-emergence, 480 h, Rate 250 g/ha, pre-emergence, visual assessment 20 DAA, 100%=total damage, 0%=no damage, read-out: Pre-emergence herbicidal activity (percentage phytotoxicity) LOLPE PRE).

On to `CC#Cc1cc(C)c(C2C(=O)CC(CC(=O)NCc3ccsc3)C2=O)c(C)c1` (stereo not shown) [Compound A55], for which the pest or weed control at 250 g/ha was found to be 90% in assay [1] (setting [11]); 90% in assay [1] (setting [12]); 100% with Avena fatua (AVEFA) (setting [13]); 80% in the assay with Avena fatua (AVEFA) (setting [14]); 100% in assay [2] (setting [15]); 100% in assay [2] (setting [16]). Moreover, the pest or weed control at 250 g/ha in the assay on Lolium perenne (LOLPE) (setting [17]) and with Lolium perenne (LOLPE) (setting [18]) was 90% in each case.

For the compound `C#CCN(C)C(=O)CC1CC(=O)C(c2c(C)cc(C)cc2CC)C1=O` (stereo not shown) [Compound B260], the pest or weed control at 250 g/ha in assay [1] (setting [3]) was found to be 100%; in assay [1] (setting [4]), 90%; in the assay with Avena fatua (AVEFA) (setting [5]), 100%; in the assay with Avena fatua (AVEFA) (setting [6]), 80%; in assay [2] (setting [7]) it was 100%; in assay [2] (setting [8]), 100%. Further, the pest or weed control at 250 g/ha with Lolium perenne (LOLPE) (setting [9]) and with Lolium perenne (LOLPE) (setting [10]) was 100% throughout.

For `CC#Cc1cc(C)c(C2C(=O)CC(CC(=O)NCCCC)C2=O)c(C)c1` (stereo not shown) [Compound A29], the pest or weed control at 250 g/ha in assay [1] (setting [11]) was 100%; in assay [1] (setting [12]) it was 100%; in the assay on Avena fatua (AVEFA) (setting [13]), 100%; in the assay with Avena fatua (AVEFA) (setting [14]), 90%; in assay [2] (setting [15]), 100%; in assay [2] (setting [16]), 100%. In addition, the pest or weed control at 250 g/ha in the assay on Lolium perenne (LOLPE) (setting [17]) and with Lolium perenne (LOLPE) (setting [18]) was 100% throughout.

As for `Cc1cc(-c2ncc(F)cc2F)cc(C)c1C1C(=O)CC(CC(=O)N(C)C(C)(C)C)C1=O` (stereo not shown) [Compound B267], the pest or weed control at 250 g/ha in assay [1] (setting [3]) worked out at 100%; in assay [1] (setting [4]) it was 100%; in the assay with Avena fatua (AVEFA) (setting [5]), 100%; with Avena fatua (AVEFA) (setting [6]) it was 80%; in assay [2] (setting [7]), 100%; in assay [2] (setting [8]), 100%. For the same compound, the pest or weed control at 250 g/ha with Lolium perenne (LOLPE) (setting [9]) and with Lolium perenne (LOLPE) (setting [10]) was 100% in each case.

Consider `Cc1cc(C)c(C2C(=O)CC(CC(=O)NC3COC3)C2=O)c(C)c1` (stereo not shown) [Compound A182], for which the pest or weed control at 250 g/ha stood at 70% in assay [1] (post-emergence, 360 h, post-emergence, 250 g/ha, 15 DAA, visual score (100%=total damage; 0%=no damage), read-out: ALOMY POST herbicidal activity (percentage phytotoxicity)); 70% in assay [1] (pre-emergence, 480 h, pre-emergence, 250 g/ha, 20 DAA, visual score (100%=total damage; 0%=no damage), read-out: ALOMY PRE herbicidal activity (percentage phytotoxicity)); 70% in the assay on Avena fatua (AVEFA) (post-emergence, 360 h, post-emergence, 250 g/ha, 15 DAA, visual score (100%=total damage; 0%=no damage), read-out: AVEFA POST herbicidal activity (percentage phytotoxicity)); 20% with Avena fatua (AVEFA) (pre-emergence, 480 h, pre-emergence, 250 g/ha, 20 DAA, visual score (100%=total damage; 0%=no damage), read-out: AVEFA PRE herbicidal activity (percentage phytotoxicity)); 80% in assay [2] (post-emergence, 360 h, post-emergence, 250 g/ha, 15 DAA, visual score (100%=total damage; 0%=no damage), read-out: ECHCG POST herbicidal activity (percentage phytotoxicity)); 0% in assay [2] (pre-emergence, 480 h, pre-emergence, 250 g/ha, 20 DAA, visual score (100%=total damage; 0%=no damage), read-out: ECHCG PRE herbicidal activity (percentage phytotoxicity)). Also, the pest or weed control at 250 g/ha came to 40% in the assay with Lolium perenne (LOLPE) (post-emergence, 360 h, post-emergence, 250 g/ha, 15 DAA, visual score (100%=total damage; 0%=no damage), read-out: LOLPE POST herbicidal activity (percentage phytotoxicity)) and 70% in the assay on Lolium perenne (LOLPE) (pre-emergence, 480 h, pre-emergence, 250 g/ha, 20 DAA, visual score (100%=total damage; 0%=no damage), read-out: LOLPE PRE herbicidal activity (percentage phytotoxicity)).
